These are literature values, as cited in US11529357B2, “Injectable carbamazepine composition essentially free of 10-bromo-carbamazepine” (H. Lundbeck A/S, priority 2019, dated 2022).

Structures are written as SMILES.

Take `NC(=O)N1c2ccccc2C=Cc2ccccc21` [carbamazepine, 5H-dibenzo[b,f]azepine-5-carboxamide]: the average oral bioavailability is recorded as 65-70%.
